Data: patent US20140323575A1, “TYROSINE ISOMERS AS THERAPEUTIC AGENTS” (CONSEJO NACIONAL DE INVESTIGACIONES CIENTIFICAS Y TECNICAS …, priority 2011, published 2014)

Assays:
LB tumor cells [1] = experiment: Rescue of in vitro LB tumor inhibition mediated by m- or o-tyrosine by co-culturing with amino acids; format: cell-based, mice; conditions: co-culture with m- or o-tyrosine
Method: (§1) Each point (percentage of cpm incorporated by LB cells as compared with the control) represents the mean±SE of 3 experiments. Significance versus control, meta-tyrosine and peak 2: P<0.001 at >2.75 μg/mL; peak 2: P<0.05 at 2.75 μg/mL. ortho-tyrosine P<0.001 at 500 to 125 μg/mL; P<0.002 at 30 μg/mL. Peak 3: P<0.002 and P<0.01, at 31 and 15.5 μg/mL, respectively. Rescue of in vitro LB tumor inhibition mediated by meta-tyrosine (150 μg/mL)(B) or ortho-tyrosine (150 μg/mL) (C) by co-culturing with 150 μg/mL of individual protein amino acids. Each value represents the mean±SE of 8 to 18 determinations for (B) and 4 to 9 determinations for (C). a, P<0.01; c, P<0.001 versus meta- or ortho-tyrosine. Data with saline was similar to data obtained with each amino acid alone.

LB tumor = experiment: In vivo growth of s.c. LB tumor implants (primary, secondary under CR, established, ascitic); set-up: species or system mice
Method: Twenty mice received an s.c. implant of 1×10^6 LB cells in the right flank, and, 7 days later, an s.c. secondary implant of 1×10^5 LB tumor cells in the left flank. […] The remaining 10 mice received 0.2 mL of phenylalanine (500 μg/mL) at the site of the secondary implant, daily, for 8 days, starting 1 hour after the secondary inoculum [CR+Phe (-□-)]. Controls were 10 mice receiving 1×10^5 LB tumor cells in the left flank only [control (-Δ-)]. A fourth group received the tumor inoculum in the left flank but also meta-tyrosine at the site of tumor implant (0.2 mL of 500 μg/mL, n=10) or by the intraperitoneal route (0.5 mL of 1,000 μg/mL, n=6), daily, for 8 days, starting 1 hour after tumor inoculum [control+m-Tyr: (-▴-)]. A fifth group received the tumor inoculum in the left flank and also meta-tyrosine (0.2 mL of 500 μg/mL, n=5) at the site of tumor growth, daily for 5 days, starting (see arrow) when LB was an established tumor measuring 60 to 70 mm^3 [est. LB+m-Tyr: (-X-)]. Abscissa, days after tumor implant in the left flank. Ordinate, volume of the tumors implanted in the left flank. CR and control+m-Tyr versus control: P<0.001 at day 9 and P<0.002 at days 5 and 7; CR and control+m-Tyr versus CR+Phe: P<0.001 at days 5, 7 and […]; est. LB+m-Tyr versus control and CR+Phe: P<0.002 at day 9. Control+tyrosine or saline, control; CR+tyrosine or saline, CR. FIG. 6B is a microscopic view showing many tumor cells expressing Ki-67 protein in both CR+phenylalanine (B1) and control (B2) groups and few tumor cells expressing Ki-67 in both CR (B3) and control+meta-tyrosine (B4) groups (H×400). FIG. 6C illustrates a representative experiment showing the frequency distribution histogram of viable LB cells from a control tumor (C1), from a secondary tumor inhibited by CR (C2), and from a tumor inhibited by periodic intraumoral injection of meta-tyrosine (C3). Samples of tumor cells were collected 9 days after the s.c. inoculation of 1×10^5 LB tumor cells.

MC-C tumor = experiment: In vivo growth of s.c. MC-C fibrosarcoma implants; set-up: species or system mice; conditions: secondary MC-C implant in primary tumor-bearing mice, 0.2 ml of 500 μg/ml daily for 19 days at the site
Method: Twelve mice received a s.c. implant of 5×10^6 MC-C tumor cells in the right flank and 25 days later they received a secondary implant of 2×10^6 MC-C tumor cells in the left flank. […] The remaining 6 mice received 0.2 ml of phenylalanine (500 μg/ml) at the site of the secondary implant, daily, for 19 days, starting 1 hour later than the secondary implant. These secondary implants grew as in 6 controls only receiving the implant in the left flank (tumor volumes of secondary tumor+phenylalanine and of controls, 20 days after the implant in the left flank were =680±152 mm^3 and 524±88 mm^3, respectively). […] Significance: Secondary tumor vs. control: p<0.01; vs. secondary tumor+phenylalanine: p<0.02. Control+m-tyrosine vs. control and vs. secondary tumor+phenylalanine: p<0.02.

CEI tumor = experiment: In vivo growth of s.c. CEI epidermoid carcinoma implants; set-up: species or system mice; conditions: secondary CEI implant in primary tumor-bearing mice, 0.2 ml of 500 μg/ml daily for 19 days at the site
Method: Twelve mice received a s.c. implant of 1×10^6 CEI tumor cells in the right flank and 28 days later they received a secondary implant of 3×10^5 CEI tumor cells in the left flank. […] The remaining 6 mice received 0.2 ml of phenylalanine (500 μg/ml) at the site of the secondary implant, daily, for 19 days, starting 1 hour later than the secondary implant. These secondary implants grew as in 6 controls only receiving the implant in the left flank (tumor volumes of secondary tumor+phenylalanine and of controls, 20 days after the implant in the left flank were 358±38 mm^3 and 373±93 mm^3, respectively). […] Significance: Secondary tumor and control+m-tyrosine vs. control: p<0.01; vs. secondary tumor+phenylalanine: p<0.001.

ERK1 and ERK2 = experiment: Western blot of p-ERK 1/2 in LB tumor cells; format: cell-based, mice; conditions: added together with m-tyrosine, 250 μg/mL each, 3 minutes
Method: (§2) FIG. 8 illustrates the effect of meta-tyrosine on the expression of phosphorylated (p)-Erk 1/2 and p-STAT3 in LB tumor cells using Western blot: 3×10^5 LB tumor cells in 0.1 mL of medium were cultured in the presence of 0.1 mL of meta-tyrosine (m-Tyr; 250 μg/mL), phenylalanine (Phe, 250 μg/mL), meta-tyrosine (250 μg/mL)+phenylalanine (250 μg/mL), or saline for 3 minutes (to measure p-ERK 1/2) or for 8 hours (to measure p-STAT3). Positive control was obtained by treating LB cells with pervanadate. Controls with acting, total ERK 1/2, and total STAT3 were also added. FIG. 8A illustrates a representative experiment showing p-ERK 1/2 expression. FIG. 8B is a histogram showing the mean of 5 experiments; a, P<0.01 versus saline and versus meta-tyrosine+phenylalanine; P<0.02 versus phenylalanine. FIG. 8C illustrates a representative experiment showing p-STAT3 expression. […]
(§3) On this basis, we analyzed, first, the effect of m-tyrosine on ERK1 and ERK2 as 2 examples of protein kinases that are activated by the mitogen activated protein/extracellular signal-regulated kinase (MAP/ERK) signal transduction pathway that normally couples intracellular responses associated with cell proliferation, to the binding of growth factors to cell surface receptors (Kohno M, and Pouyssegur J. 2006. Targeting the ERK signaling pathway in cancer therapy. Ann Med; 38:200-211). […]

STAT3 = experiment: Western blot of p-STAT3 in LB tumor cells; format: cell-based, mice; conditions: added together with m-tyrosine, 250 μg/mL each, 8 hours
Method: as §2, §3

LB tumor cells [2] = experiment: In vitro LB tumor cell proliferation ([3H]-thymidine uptake); format: cell-based, mice; conditions: even with high concentrations
Method: as §1
Fractionation of serum from mice bearing a subcutaneous LB tumor (size≧2,000 mm^3) was carried out through several steps of purification (FIG. 1). Serum from normal mice was similarly fractioned as control. At all stages of the purification, the presence of the inhibitory factor was monitored by the [^3H]-thymidine uptake assay as a measure of LB tumor cell proliferation. First, serum was decomplemented and subjected to dialysis. The inhibitory factor was recovered only in the dialyzable fraction (MW<12,500 Da) and was then concentrated by lyophilization and applied successively to Sephadex G-25 and G-15 chromatographic columns, where activity was recovered at fractions corresponding to a molecular weight below 1,000 Da. These fractions were lyophilized and further purified with an HPLC column C18 in a gradient of acetonitrile in TFA (first HPLC). In 12 similar and independent experiments, growth inhibitory activity was systematically recovered in only 1 fraction eluted at near 20% acetonitrile (FIG. 2).
To test directly whether a “cocktail” of amino acids similar to that detected close to the “primary site” was more counteracting of the antitumor effects produced by m- and o-tyrosine than a “secondary site cocktail,” different concentrations of a mixture of m-tyrosine and o-tyrosine (ratio 1:1) were assayed on LB tumor cell proliferation, alone or together with a primary or a secondary site cocktail of amino acids.

[3] = tested on: inhibitory activity present in serum from LB tumor-bearing mice; experiment: Titer of growth-inhibitory activity in serum from drug-treated LB tumor-bearing mice; format: in vivo; conditions: for effect on serum inhibitory activity of LB tumor-bearing mice: treatment of LB tumor-bearing mice
[4] = serum of mice bearing s.c. LB tumor >2,000 mm^3, agent i.p. 48 and 24 hours before testing, titer = reciprocal of serum dilution producing 50% inhibition of [3H]thymidine uptake by LB cells

Compound	counteracting of the inhibitory effect produced by m- and o-tyrosine (LB tumor cells [1])	GIU50/mL (X ± SE) [3, 4]	effect on serum inhibitory activity of LB tumor-bearing mice [3]	also measured
N[C@@H](Cc1ccccc1)C(=O)O [phenylalanine, reference compound]	counteracted			expression of Ki-67 protein in tumor cells (LB tumor; control+m-tyrosine tumors or secondary implants treated with phenylalanine (FIG. 6B)): high expression; growth of secondary LB tumor implant otherwise inhibited by CR (LB tumor; periodically inoculated at the site of the secondary implant): grew similarly to controls; tumor volume of secondary tumor 20 days after the implant in the left flank (MC-C tumor): 680±152 mm^3; tumor volume of secondary tumor 20 days after the implant in the left flank (CEI tumor): 358±38 mm^3; effect on the m-tyrosine-induced reduction of ERK1/ERK2 activation (ERK1 and ERK2): reversed that effect; effect on the m-tyrosine-induced reduction of STAT3 activation (STAT3): reversed that effect
N[C@@H](CC(=O)O)C(=O)O [aspartic acid]	counteracted			
N[C@@H](Cc1ccc(O)cc1)C(=O)O [tyrosine, 4-hydroxyphenylalanine]	did not reduce			effect on LB cells in vitro (LB tumor cells [2]): innocuous
O=C1CCN(c2ccccc2)N1 [Phenidone, phenidone]		103 ± 19 GIU50/mL	significant reduction	
COC(=O)[C@@H](N)CCCNC(=N)N[N+](=O)[O-] [L-NAME]		266 ± 34 GIU50/mL	did not reduce	
NC(=O)CC[C@H](N)C(=O)O [glutamine]	counteracted			
Catalase		49 ± 5 GIU50/mL	significant reduction	
CCCCc1nc(Cl)c(CO)n1Cc1ccc(-c2ccccc2-c2nn[nH]n2)cc1 [Losartant, losartan]			did not reduce	GIU50/mL (X ± SE) ([3]; ip): 300 ± 30 GIU50/mL
Nc1ccn([C@@H]2O[C@H](CO)[C@@H](O)C2(F)F)c(=O)n1 [Gemcitabine, gemcitabine]		40 ± 6 GIU50/mL	significant reduction	
C[C@@H]1C[C@H]2[C@@H]3CCC4=CC(=O)C=C[C@]4(C)[C@@]3(F)[C@@H](O)C[C@]2(C)[C@@]1(O)C(=O)CO [Dexamethasone, dexamethasone]				GIU50/mL (X ± SE) ([3]; ip): 70 ± 18 GIU50/mL
COc1ccc2c(c1)c(CC(=O)O)c(C)n2C(=O)c1ccc(Cl)cc1 [INDO, indomethacin]			significant reduction	GIU50/mL (X ± SE) ([3]; ip): 142 ± 16 GIU50/mL
N[C@@H](CCC(=O)O)C(=O)O [glutamic acid]	counteracted			
CN(C)CCCN1c2ccccc2Sc2ccc(Cl)cc21 [Chlorpromazine, chlorpromazine]			significant reduction	GIU50/mL (X ± SE) ([3]; ip): 84 ± 19 GIU50/mL
CC(Cc1ccc(O)c(O)c1)C(C)Cc1ccc(O)c(O)c1 (centres unmarked) [NDGA, nordihydroguaiaretic acid]		116 ± 14 GIU50/mL	significant reduction	
CC(CN1c2ccccc2Sc2ccccc21)N(C)C (centres unmarked) [Promethazine, promethazine]		80 ± 9 GIU50/mL	significant reduction	
N[C@@H](Cc1c[nH]cn1)C(=O)O [histidine]	only counteracted the inhibitory effect produced by m-tyrosine			
